# Reference: patent US20090162329A1, “COMPOSITIONS COMPRISING HDAC INHIBITORS AND METHODS OF THEIR USE IN RESTORING STEM CELL FUNCTION AND PREVENTING HEART FAILURE” (priority 2007, published 2009)
# “Also recorded” adds a separate entry of the source.
# Tests used:
# DNA methyltransferases = conditions: ECs and non-EC types; cited from earlier work
# ESCs = test: Effect of HDAC inhibitors on ESC differentiation after LIF removal (FIG. 23); assay type: cell-based, mouse; conditions: following LIF removal
# Source text: FIG. 23. Effect of HDAC inhibitors on ESC differentiation. […] DAPI, blue.
# histone H3 = test: Histone H3 methylation in ESCs by Western blotting (FIG. 15); assay type: cell-based; conditions: mouse ESCs, loading by histone H1
# Method: FIG. 15. Histone methylation in VPCs, MPCs and ESCs. A: H3K79me2 is present in MPCs and absent in VPCs. B: Shear stress (SS) induces a 4-5-fold increase in H3K79me2 in mouse ESCs. […] Equal loading is determined on the basis of histone H1.
# Western blotting. Genome-wide methylation and acetylation of histone 3 and histone 4 are analyzed. Protein lysates are obtained with Laemmli buffer containing β-mercaptoethanol. Proteins are separated on 15% SDS-PAGE, transferred onto nitrocellulose and exposed to specific antibodies against different histone modifications (H3K9me2/3, H3K27me3, H3K4me2/3, H3K79me3, H4K20me2, H4K5Ac, H4K8Ac, H4K12Ac, H4K16Ac, H3K9Ac, H3K14Ac). Loading conditions are determined by β-actin expression (6, 7, 58, 59). In a similar manner, HDAC expression is quantified in total cell lysates and in nuclear and cytoplasmic lysates (249, 250).
# HDAC = conditions: mouse ESCs, nuclear HDAC activity
# Method: E: The activity of HDAC was measured by employing acetylated H4 as substrate.
# class I and II HDAC = conditions: cited from earlier work
# myocardial hypertrophy = conditions: following pressure overload; cited from earlier work
compound,measurement,setting,value
Nc1ncn([C@@H]2O[C@H](CO)[C@@H](O)[C@H]2O)c(=O)n1 [5-azacytidine],eNOS mRNA,DNA methyltransferases,induces the upregulation of eNOS mRNA
Cn1c(/C=C/C(=O)NO)ccc1/C=C/C(=O)c1cccc(F)c1 [MC1568],"differentiation of ESCs into cardiovascular lineages / cardiac cell phenotypes (flk1, CD31, SM22, α-SA)",ESCs,inhibits the cardiac commitment of ESCs
same,neuronal differentiation of ESCs (nestin expression),ESCs,favors neuronal differentiation; also recorded: selective expression of nestin
Nc1ccccc1NC(=O)c1ccc(CNC(=O)OCc2cccnc2)cc1 [MS27-275],"differentiation of ESCs into cardiovascular lineages / cardiac cell phenotypes (flk1, CD31, SM22, α-SA)",ESCs,triggers differentiation of ESCs to cardiac cell phenotypes; also recorded: promotes the preferential differentiation of ESCs into cardiovascular lineages
same,neuronal differentiation of ESCs (nestin expression),ESCs,opposes neuronal commitment
CC(/C=C/C(=O)NO)=C\[C@@H](C)C(=O)c1ccc(N(C)C)cc1 [Trichostatin A],overall methylation level of histone H3,histone H3,reduces the overall methylation level of histone H3
same,neuronal differentiation of ESCs (nestin expression),ESCs,selective expression of nestin
same,increase of HDAC activity early after LIF depletion,HDAC,inhibited
same,cell cycle arrest and differentiation,class I and II HDAC,induces cell cycle arrest and differentiation
same,myocardial hypertrophy,myocardial hypertrophy,blunts myocardial hypertrophy
